Results as given in US5859004A, “Use of heterocyclic compounds for the treatment of conditions caused by malfunctioning of the nicotinic cholinergic system” (Novo Nordisk A/S, priority 1995, dated 1999).
Like-named read-outs stand apart in the source and are kept apart here.

How the values were obtained:
[1] = target: T1, nicotinic acetylcholine receptors (rat cortical receptors) (Rattus norvegicus, UniProt P09483+P12390); assay: Inhibition of specific binding of ^3 H-methylcarbamylcholine (^3 H-MCC); conditions: for Ratio Oxo/MCC: IC50 ^3 H-Oxo / IC50 ^3 H-MCC, selectivity nicotinic over muscarinic; for IC50: rat cortical receptors, ^3 H-MCC 2 nM, 0° C., 60 min
T1 construct: Fresh or frozen rat, brain tissue (hippocampus or cortex) was homogenized; from tissue; host or cells: rat brain tissue (hippocampus or cortex)
Source text: The pharmacological properties of the compounds of the invention can be illustrated by determining their capability to inhibit the specific binding of ^3 H-methylcarbamylcholine (^3 H-MCC) (Abood and Grassi, Biochem. Pharmacol., Vol. 35, pp. 4199--4202, (1986)).
^3 H-MCC labels the nicotinic receptors in the CNS. The inhibitory effect on ^3 H-MMC binding reflects the affinity for nicotinic acetylcholine receptors.
Fresh or frozen rat, brain tissue (hippocampus or cortex) was homogenized in assay buffer (50 mM Tris-HCl, pH 7.4, 120 mM NaCl, 5 mM KCl, 2 mM CaCl2, 1 mM MgCl2) and centrifuged for 10 min. at 40.000×g. Pellets were subsequently reconstituted in assay buffer and an appropriate amount of tissue sample was mixed in tubes with ^3 H-methylcarbamylcholine (NEN, NET-951; final concentration 2 nM) and test drug. The tubes were incubated at 0° C. for 60 min. Unbound ligand was separated from bound ligand by vacuum filtration through GF/B filters presoaked in 0.5% polyethylenimine. Filters were washed three times with 5 ml wash buffer (50 mM Tris-HCl, pH 7.4) and transferred to vials. 4 ml scintillation fluid was added and the radioactivity was measured by scintillation counting. Unspecific binding was measured with 10 μM nicotine.
The IC50 values of the test compounds were determined by nonlinear regression analyses (GraphPad InPlot).
Table I illustrates the affinity of the compounds of the present invention for nicotinic and muscarinic receptors as determined by ^3 H-MCC and ^3 H-Oxo binding to rat cortical receptors. The compounds, however, show selective affinity for nicotinic receptors as compared to muscarinic receptors, i.e OXO/MCC>1.

[2] = target: muscarinic acetylcholine receptors (rat cortical receptors); assay: Inhibition of specific binding of ^3 H-Oxotremorine-M (^3 H-Oxo); conditions: rat cortex; ^3 H-Oxotremorine 1.0 nM, 25° C., 30 min
Source text: Furthermore, the pharmacological properties of the compounds of the invention can also be illustrated by determining their capability to inhibit the specific binding of ^3 H-Oxotremorine-M (^3 H-Oxo). Birdsdall N. J. M., Hulme E. C., and Burgen A. S. V. (1980). "The Character of Muscarinic Receptors in Different Regions of the Rat Brain". Proc. Roy. Soc. London (Series B) 207,1.
^3 H-Oxo labels muscarinic receptor in the CNS (with a preference for agonist domains of the receptors). Three different sites are labelled by ^3 H-Oxo. […] Using the present experimental conditions only the high and medium affinity sites are determined.
The inhibitory effects of compounds on ^3 H-Oxo binding reflects the affinity for muscarinic acetylcholine receptors.
All preparations are performed at 0°-4° C. unless otherwise indicated. Fresh cortex (0.1-1 g) from male Wistar rats (150-250 g) is homogenized for 5-10 s in 10 ml 20 mM Hepes pH: 7.4, with an Ultra-Turrax homogenizer. The homogenizer is rinsed with 10 ml of buffer and the combined suspension centrifuged for 15 min. at 40,000×g. The pellet is washed three times with buffer. In each step the pellet is homogenized as before in 2×10 ml of buffer and centrifuged for 10 min. at 40,000×g.
The final pellet is homogenized in 20 mM Hepes pH: 7.4 (100 ml per g of original tissue) and used for binding assay. Aliquots of 0.5 ml is added 25 μl of test solution and 25 μl of ^3 H-Oxotremorine (1.0 nM, final concentration) mixed and incubated for 30 min. at 25° C. Non-specific binding is determined in triplicate using arecoline (1 μg/ml, final concentration) as the test substance. After incubation samples are added 5 ml of ice-cold buffer and poured directly onto Whatman GF/C glass fiber filters under suction and immediately washed 2 times with 5 ml of ice-cold buffer. The amount of radioactivity on the filters are determined by conventional liquid scintillation counting. Specific binding is total binding minus non specific binding.
Test substances are dissolved in 10 ml water (if necessary heated on a steam-bath for less than 5 min.) at a concentration of 2.2 mg/ml. 25-75% inhibition of specific binding must be obtained before calculation of IC50. The test value will be given as IC50 (the concentration (nM) of the test substance which inhibits the specific binding of ^3 H-Oxo by 50%).
IC50 =(applied test substance concentration)×(Cx /Co
where Co is specific binding in control assays and Cx is the specific binding in the test assay. (The calculations assume normal mass-action kinetics).
Table I illustrates the affinity of the compounds of the present invention for nicotinic and muscarinic receptors as determined by ^3 H-MCC and ^3 H-Oxo binding to rat cortical receptors. […]

[3] = target: muscarinic acetylcholine receptors (rat cortical receptors); conditions: read-out: affinity of site labelled by ^3 H-Oxo, cited from earlier work
nicotinic = conditions: age related; cited from earlier work
Tourette's syndrome = conditions: in vivo; cited from earlier work
healthy humans = conditions: cited from earlier work
substantia nigra = conditions: chronic nicotine; lesioning; cited from earlier work
dopamine release = conditions: nucleus accumbens versus striatum; cited from earlier work
[4] = test system: Alzheimer's disease patients; conditions: cited from earlier work
dopaminergic effects = conditions: various behavioral models; cited from earlier work

T1 sequence (P09483 31-630): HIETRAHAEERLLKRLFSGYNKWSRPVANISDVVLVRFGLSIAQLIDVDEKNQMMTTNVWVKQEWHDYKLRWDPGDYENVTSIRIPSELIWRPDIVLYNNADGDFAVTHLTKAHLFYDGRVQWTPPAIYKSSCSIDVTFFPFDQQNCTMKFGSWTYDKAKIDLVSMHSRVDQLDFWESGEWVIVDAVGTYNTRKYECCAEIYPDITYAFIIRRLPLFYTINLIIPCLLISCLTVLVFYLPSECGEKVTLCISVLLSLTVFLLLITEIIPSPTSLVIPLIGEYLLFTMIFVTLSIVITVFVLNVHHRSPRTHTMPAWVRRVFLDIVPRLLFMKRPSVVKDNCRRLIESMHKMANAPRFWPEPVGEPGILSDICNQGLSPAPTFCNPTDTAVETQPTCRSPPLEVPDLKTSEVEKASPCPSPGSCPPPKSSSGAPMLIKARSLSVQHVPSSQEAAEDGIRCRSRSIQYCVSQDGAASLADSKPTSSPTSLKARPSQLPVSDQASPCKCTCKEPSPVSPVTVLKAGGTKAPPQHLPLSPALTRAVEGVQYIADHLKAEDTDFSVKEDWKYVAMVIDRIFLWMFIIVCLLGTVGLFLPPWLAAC
T1 sequence (P12390 25-500): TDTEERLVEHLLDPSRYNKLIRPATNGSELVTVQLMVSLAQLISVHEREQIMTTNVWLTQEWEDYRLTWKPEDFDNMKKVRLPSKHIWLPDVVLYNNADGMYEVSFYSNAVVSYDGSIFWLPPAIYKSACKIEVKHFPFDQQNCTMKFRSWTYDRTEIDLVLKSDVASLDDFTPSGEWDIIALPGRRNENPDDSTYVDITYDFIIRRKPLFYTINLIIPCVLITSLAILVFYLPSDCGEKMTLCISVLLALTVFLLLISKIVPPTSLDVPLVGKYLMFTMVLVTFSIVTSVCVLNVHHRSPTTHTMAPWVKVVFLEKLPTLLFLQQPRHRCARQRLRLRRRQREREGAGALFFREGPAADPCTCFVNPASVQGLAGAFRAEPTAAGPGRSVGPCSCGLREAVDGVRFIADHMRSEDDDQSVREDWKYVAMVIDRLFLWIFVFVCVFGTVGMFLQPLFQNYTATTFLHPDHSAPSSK

## Cc1cc(/C=C2\CN3CCCC2C3)on1.O=C(O)C(=O)O (stereo not shown) [Compound 3, (Z)-6-(3-methyl-5-isoxazolyl)methylene-1-azabicyclo[3.2.1]octane oxalate]
[1]
  Ratio Oxo/MCC: 5.9
  IC50: 0.161 µM
[2]
  IC50: 0.953 µM

## Cc1cc(/C=C2/CN3CCCC2C3)on1.O=C(O)C(=O)O (stereo not shown) [Compound 4, (E)-6-(3-methyl-5-isoxazolyl)methylene-1-azabicyclo[3.2.1]octane oxalate]
[1]
  Ratio Oxo/MCC: 22.1
  IC50: 0.081 µM
[2]
  IC50: 1.78 µM

## Cc1cc(/C=C2\CN3CCC2C3)on1.O=C(O)C(=O)O (stereo not shown) [Compound 5, (Z)-3-(3-methyl-5-isoxazolyl)methylene-1-azabicyclo[2.2.1]heptane oxalate]
[1]
  Ratio Oxo/MCC: 17.2
  IC50: 0.025 µM
[2]
  IC50: 0.43 µM

## Cc1cc(/C=C2/CN3CCC2C3)on1.O=C(O)C(=O)O (stereo not shown) [Compound 6, (E)-3-(3-methyl-5-isoxazolyl)methylene-1-azabicyclo[2.2.1]heptane oxalate]
[1]
  Ratio Oxo/MCC: 55.0
  IC50: 0.02 µM
[2]
  IC50: 1.1 µM

## C[N+](C)(C)CC#CCN1CCCC1=O [^3 H-Oxo, ^3 H-Oxotremorine-M]
[3]; high affinity site
  Kd: 0.0018 µM
[3]; medium affinity site
  Kd: 0.02 µM
[3]; third (lowest affinity) site, not determined under the present conditions
  Kd: 3 µM

## CNC1(C)C2CCC(C2)C1(C)C (stereo not shown) [mecamylamine]
nicotinic
  cognitive impairment: cause cognitive impairment in an age related way

## CN1CCCC1c1cccnc1 (stereo not shown) [nicotine]
Tourette's syndrome
  effects in Tourette's syndrome: beneficial effects in Tourette's syndrome
Healthy humans
  attention and memory: improved attention and memory
Substantia nigra
  protection against cell loss in the substantia nigra: may protect against cell loss in the substantia nigra caused by lesioning
Dopamine release
  dopamine release: stimulates dopamine release in the nucleus accumbens more potently than in striatum
[4]
  attention and memory: improved attention and memory
Dopaminergic effects
  potentiation of dopaminergic effects: will potentiate dopaminergic effects in various behavioral models
